The source of these data is the supplement of paper PMC10790783.

The experiment relates to MRC5-hT fibroblasts expressing HCMV UL38 (glucose-free medium). The experiment can be described thus: rescue of cell number (AUC of dose-response) relative to untreated glucose-free control; higher = stronger protection from glucose-starvation-induced cell death. Particulars: glucose: 0 (glucose-free DMEM); 96 h; dose range 0.001-20, 10-point curve µM. The method, then:
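MRC5-hT fibroblasts stably expressing HCMV UL38 were seeded in 384-well plates, serum-starved for 24 h, switched to glucose-free DMEM, and pin-transferred with a metabolism-focused compound library as 10-point dose curves (1 nM to 20 µM; n=2). Nuclei were counted by Hoechst imaging 96 h after glucose withdrawal.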
`CCOC(=O)[C@@H](N)CCC(=O)N[C@@H](CSCc1ccccc1)C(=O)N[C@@H](C(=O)OCC)c1ccccc1` [Telintra]: the “rescue of cell number” value turned out to be 16.7%.
As for `CN(C/C=C/C#CC(C)(C)C)Cc1cccc2ccccc12` [Terbinafine_HCl], the figure is -15.4%.
With `C/C(O)=C(\C#N)C(=O)Nc1ccc(C(F)(F)F)cc1` [Teriflunomide] the figure was -6.67%; with `C/C=C(/C)C(=O)O[C@H]1C(C)=C2[C@H]([C@@H]1OC(=O)CCCCCCC)[C@@](C)(OC(C)=O)C[C@H](OC(=O)CCC)[C@@]1(O)[C@H]2OC(=O)[C@@]1(C)O` [Thapsigargin], 25.4%; with `CCc1ccc(Cc2ccc3c(c2)[C@]2(OC3)O[C@H](CO)[C@@H](O)[C@H](O)[C@H]2O)cc1` [Tofogliflozin hydrate], -27.9%.
For `Cc1ccc(C(=O)c2cc(O)c(O)c([N+](=O)[O-])c2)cc1` [Tolcapone], the “rescue of cell number” value stood at 37.3%.
As for `CCOC(=O)N1c2ccc(C(F)(F)F)cc2[C@@H](N(Cc2cc(C(F)(F)F)cc(C(F)(F)F)c2)C(=O)OC)C[C@H]1CC` [Torcetrapib], the “rescue of cell number” value was -13.1%.
With `N#Cc1cn([C@@H]2O[C@H](CO)[C@@H](O)[C@H]2O)c2ncnc(N)c12` [Toyocamycin] the figure was 9.71%.
Consider `CC1=C(/C=C/C(C)=C/C=C/C(C)=C/C(=O)O)C(C)(C)CCC1` [Tretinoin], for which the “rescue of cell number” value was 10%.
As for `Oc1cc(Cl)ccc1Oc1ccc(Cl)cc1Cl` [Triclosan], the figure is 5.01%.
Turning to `CC(=O)N[C@H]1[C@@H](O[C@@H]2O[C@H](CC(O)[C@H]3O[C@@H](n4ccc(=O)[nH]c4=O)[C@H](O)[C@@H]3O)[C@H](O)[C@H](O)[C@H]2NC(=O)/C=C/CC(C)C)O[C@H](CO)[C@@H](N)[C@@H]1O` (some centres not stated) [Tunicamycin], the “rescue of cell number” value was 3.6%.
For the compound `NS(=O)(=O)c1ccc(NC(=O)Nc2ccc(F)cc2)cc1` [U_104], the “rescue of cell number” value is -34.7%.
With `CCCC(CCC)C(=O)O` [Valproic_acid] the figure was -34%; with `COc1ccc(C(CN(C)C)C2(O)CCCCC2)cc1` (configuration not stated) [Venlafaxine], 6.28%; with `CC[C@]1(O)C[C@H]2CN(CCc3c([nH]c4ccccc34)[C@@](C(=O)OC)(c3cc4c(cc3OC)N(C=O)[C@H]3[C@@](O)(C(=O)OC)[C@H](OC(C)=O)[C@]5(CC)C=CCN6CC[C@]43[C@@H]65)C2)C1` [Vincristine_sulfate], 29.6%.
For the compound `OCC(CO)N[C@H]1C[C@](O)(CO)[C@@H](O)[C@H](O)[C@H]1O` [Voglibose], the “rescue of cell number” value was -36.2%.
As for `CCOC(=O)c1ccc(-c2ccc(OC(=O)N(C)Cc3cccc(-c4ccncc4)c3)cc2)cc1` [WWL_113], the figure is -23.8%; as for `COc1cc(O)c(CC=C(C)C)c(O)c1C(=O)/C=C/c1ccc(O)cc1` [Xanthohumol], 15.1%; as for `Nc1ccn([C@H]2CC[C@@H](CO)O2)c(=O)n1` [Zalcitabine], 9.86%.
In the case of `CC(c1cc2ccccc2s1)N(O)C(N)=O` (configuration not stated) [Zileuton], the “rescue of cell number” value is -16.9%.
With `CCCCC[C@H](O)CC(=O)CCc1ccc(O)c(OC)c1` [[6]-Gingerol] the figure was -29.7%; with `CC1(C)CCC2=C(O1)c1ccccc1C(=O)C2=O` [beta_Lapachone], 70.8%.
